# Assay results: BindingDB's records for doi:10.3109/14756360902888200 (Chung Shan Medical University Hospital, 2010)
# Target: Carboxylic ester hydrolase (Equus caballus, UniProt Q9N1N9)
# Assay: BChE Inhibition Assay
# Conditions: pH 7; 25 °C
# Description: BChE inhibitions by the carbamate inhibitors were assayed by the Ellman method [Ellman et al., Biochem. Pharm., 7:88-95]. BChE-catalyzed hydrolysis of BTCh in the presence of the carbamate inhibitors and DTNB was followed continuously at 410 nm on a UV-visible spectrometer. The temperature was maintained at 25.0°C by a refrigerated circulating water bath. All inhibition reactions were performed in sodium phosphate buffer (1 mL, 0.1 M, pH 7.0) containing NaCl (0.1 M), acetonitrile (2% by volume), triton X-100 (0.5% by weight), substrate (ATCh for AChE or BTCh for BChE) (50 μM), DTNB, and varying concentrations of inhibitor. Requisite volumes of stock solution of substrateand inhibitors in acetonitrile were injected into the reaction buffer via a pipet. BChE was dissolved in sodium phosphate buffer (0.1 M, pH 7.0).
# Chain of Carboxylic ester hydrolase (Q9N1N9 whole entry): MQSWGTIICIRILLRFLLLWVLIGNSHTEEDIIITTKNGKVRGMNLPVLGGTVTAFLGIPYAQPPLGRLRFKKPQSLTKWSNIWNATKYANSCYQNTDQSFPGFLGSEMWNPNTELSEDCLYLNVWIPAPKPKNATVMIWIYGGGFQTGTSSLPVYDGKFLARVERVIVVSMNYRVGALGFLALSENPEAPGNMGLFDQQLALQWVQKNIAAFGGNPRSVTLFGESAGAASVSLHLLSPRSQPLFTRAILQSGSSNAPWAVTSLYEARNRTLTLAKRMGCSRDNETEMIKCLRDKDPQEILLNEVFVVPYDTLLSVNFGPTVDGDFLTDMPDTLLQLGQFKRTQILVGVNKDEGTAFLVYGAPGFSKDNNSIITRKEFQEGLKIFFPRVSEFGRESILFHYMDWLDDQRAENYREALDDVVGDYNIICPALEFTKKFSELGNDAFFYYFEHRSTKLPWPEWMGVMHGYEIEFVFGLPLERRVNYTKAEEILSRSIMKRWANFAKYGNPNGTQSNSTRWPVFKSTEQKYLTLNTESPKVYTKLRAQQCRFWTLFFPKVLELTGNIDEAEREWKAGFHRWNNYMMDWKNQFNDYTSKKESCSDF
row,Compound,Ki [nM]
1,CCCCNC(=O)OC1CC2CCC1C2 [(S)-(-)-exo-2-norbonyl-N-n-butylcarbamate],50
2,CCCCNC(=O)OC1CC2CCC1C2 [(R)-(+)-exo-2-norbonyl-N-n-butylcarbamate],11
3,CCCCNC(=O)OC1CC2CCC1C2 [(S)-(-)-endo-2-norbornyl-N-n-butylcarbamate],2
